Experimental data: BindingDB's records for doi:10.1073/pnas.0708281105 (Gsk, 2008)

Key:
Test in all cases: Receptor Tyrosine Kinase Inhibition Assay
Settings in all cases: pH 7.5; 23 °C
[1] = target: Epidermal growth factor receptor (Homo sapiens, UniProt P00533)
Procedure: (§1) Assays were performed in 96-well microtiter plates in reaction buffer containing biotinylated substrate, ATP/[gamma-33P]ATP, and purified kinase in the presence of test compounds. Reactions were terminated and transferred to MAPH phosphocellulose filter plates. The scintillation mixture was added to each well, and the assay was quantified by counting in a Packard Topcount (Packard Instrument Co.).

[2] = target: Receptor tyrosine-protein kinase erbB-2 (Homo sapiens, UniProt P04626)
Sequence of Receptor tyrosine-protein kinase erbB-2 (P04626 whole entry): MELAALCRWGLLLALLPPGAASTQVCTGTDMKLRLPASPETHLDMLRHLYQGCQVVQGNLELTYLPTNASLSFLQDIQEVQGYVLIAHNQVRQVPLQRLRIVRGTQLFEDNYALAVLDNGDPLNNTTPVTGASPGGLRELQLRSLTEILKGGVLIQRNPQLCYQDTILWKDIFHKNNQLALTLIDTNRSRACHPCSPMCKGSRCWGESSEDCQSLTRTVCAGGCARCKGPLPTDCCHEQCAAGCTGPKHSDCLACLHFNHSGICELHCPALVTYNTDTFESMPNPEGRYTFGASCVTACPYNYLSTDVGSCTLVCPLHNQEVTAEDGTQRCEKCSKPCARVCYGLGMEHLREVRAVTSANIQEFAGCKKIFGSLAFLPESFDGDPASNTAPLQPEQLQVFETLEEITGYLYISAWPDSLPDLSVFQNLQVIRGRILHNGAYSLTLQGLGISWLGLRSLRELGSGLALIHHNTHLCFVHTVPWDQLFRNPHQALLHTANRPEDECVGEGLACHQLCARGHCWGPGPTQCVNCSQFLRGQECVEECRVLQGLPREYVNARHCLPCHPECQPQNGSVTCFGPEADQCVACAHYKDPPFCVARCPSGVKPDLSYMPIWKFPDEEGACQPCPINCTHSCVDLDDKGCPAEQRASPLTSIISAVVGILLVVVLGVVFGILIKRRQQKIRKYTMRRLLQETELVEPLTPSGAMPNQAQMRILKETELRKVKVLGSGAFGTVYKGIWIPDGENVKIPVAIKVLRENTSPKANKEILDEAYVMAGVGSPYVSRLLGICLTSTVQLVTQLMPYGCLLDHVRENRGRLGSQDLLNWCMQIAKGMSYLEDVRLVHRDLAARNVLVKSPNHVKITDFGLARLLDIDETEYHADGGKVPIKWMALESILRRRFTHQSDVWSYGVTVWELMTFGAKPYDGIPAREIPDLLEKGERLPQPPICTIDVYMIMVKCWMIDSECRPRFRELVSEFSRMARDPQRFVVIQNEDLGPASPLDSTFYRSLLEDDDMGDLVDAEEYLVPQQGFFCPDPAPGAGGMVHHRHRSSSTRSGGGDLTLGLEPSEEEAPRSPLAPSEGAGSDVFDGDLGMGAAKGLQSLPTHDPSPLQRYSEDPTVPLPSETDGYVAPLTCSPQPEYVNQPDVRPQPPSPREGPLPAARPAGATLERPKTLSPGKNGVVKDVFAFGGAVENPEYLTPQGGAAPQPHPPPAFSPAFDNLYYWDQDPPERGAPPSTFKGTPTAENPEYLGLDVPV
Procedure: as §1

[3] = target: Receptor tyrosine-protein kinase erbB-4 (Homo sapiens, UniProt Q15303)
Sequence of Receptor tyrosine-protein kinase erbB-4 (Q15303 whole entry): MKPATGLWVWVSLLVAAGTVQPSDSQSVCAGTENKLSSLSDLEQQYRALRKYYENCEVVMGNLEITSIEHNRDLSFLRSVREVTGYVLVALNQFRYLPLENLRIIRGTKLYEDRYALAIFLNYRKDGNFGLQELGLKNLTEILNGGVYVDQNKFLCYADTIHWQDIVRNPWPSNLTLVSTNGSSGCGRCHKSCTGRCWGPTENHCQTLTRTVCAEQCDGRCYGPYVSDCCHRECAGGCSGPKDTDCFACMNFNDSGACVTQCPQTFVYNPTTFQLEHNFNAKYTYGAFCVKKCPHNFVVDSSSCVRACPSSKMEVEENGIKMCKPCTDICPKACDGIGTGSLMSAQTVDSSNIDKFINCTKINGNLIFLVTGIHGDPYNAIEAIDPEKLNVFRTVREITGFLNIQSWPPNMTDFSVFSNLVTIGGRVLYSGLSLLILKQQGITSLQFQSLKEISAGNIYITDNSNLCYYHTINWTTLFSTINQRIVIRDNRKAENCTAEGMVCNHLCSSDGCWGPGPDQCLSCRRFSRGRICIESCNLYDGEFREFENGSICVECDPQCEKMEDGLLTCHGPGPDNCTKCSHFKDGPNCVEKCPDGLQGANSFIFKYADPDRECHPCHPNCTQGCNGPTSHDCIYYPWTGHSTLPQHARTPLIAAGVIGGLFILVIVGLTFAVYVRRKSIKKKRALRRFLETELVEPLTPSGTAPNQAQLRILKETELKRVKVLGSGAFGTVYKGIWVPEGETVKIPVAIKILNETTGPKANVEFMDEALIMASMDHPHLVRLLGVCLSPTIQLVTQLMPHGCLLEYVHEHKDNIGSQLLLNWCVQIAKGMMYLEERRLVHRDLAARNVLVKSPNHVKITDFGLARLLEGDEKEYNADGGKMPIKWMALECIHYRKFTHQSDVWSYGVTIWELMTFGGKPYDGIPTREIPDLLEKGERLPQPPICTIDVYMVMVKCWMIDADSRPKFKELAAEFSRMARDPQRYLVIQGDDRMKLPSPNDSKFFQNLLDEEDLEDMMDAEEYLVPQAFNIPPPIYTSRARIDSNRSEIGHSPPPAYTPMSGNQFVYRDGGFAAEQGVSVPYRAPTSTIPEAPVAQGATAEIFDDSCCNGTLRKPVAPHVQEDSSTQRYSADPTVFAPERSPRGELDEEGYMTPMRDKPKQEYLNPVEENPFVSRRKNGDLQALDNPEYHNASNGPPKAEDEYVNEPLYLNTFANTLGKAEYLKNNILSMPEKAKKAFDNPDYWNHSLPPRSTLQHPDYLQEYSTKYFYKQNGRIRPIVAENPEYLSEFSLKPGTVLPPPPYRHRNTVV
Procedure: as §1

Sequence of Epidermal growth factor receptor (P00533 whole entry): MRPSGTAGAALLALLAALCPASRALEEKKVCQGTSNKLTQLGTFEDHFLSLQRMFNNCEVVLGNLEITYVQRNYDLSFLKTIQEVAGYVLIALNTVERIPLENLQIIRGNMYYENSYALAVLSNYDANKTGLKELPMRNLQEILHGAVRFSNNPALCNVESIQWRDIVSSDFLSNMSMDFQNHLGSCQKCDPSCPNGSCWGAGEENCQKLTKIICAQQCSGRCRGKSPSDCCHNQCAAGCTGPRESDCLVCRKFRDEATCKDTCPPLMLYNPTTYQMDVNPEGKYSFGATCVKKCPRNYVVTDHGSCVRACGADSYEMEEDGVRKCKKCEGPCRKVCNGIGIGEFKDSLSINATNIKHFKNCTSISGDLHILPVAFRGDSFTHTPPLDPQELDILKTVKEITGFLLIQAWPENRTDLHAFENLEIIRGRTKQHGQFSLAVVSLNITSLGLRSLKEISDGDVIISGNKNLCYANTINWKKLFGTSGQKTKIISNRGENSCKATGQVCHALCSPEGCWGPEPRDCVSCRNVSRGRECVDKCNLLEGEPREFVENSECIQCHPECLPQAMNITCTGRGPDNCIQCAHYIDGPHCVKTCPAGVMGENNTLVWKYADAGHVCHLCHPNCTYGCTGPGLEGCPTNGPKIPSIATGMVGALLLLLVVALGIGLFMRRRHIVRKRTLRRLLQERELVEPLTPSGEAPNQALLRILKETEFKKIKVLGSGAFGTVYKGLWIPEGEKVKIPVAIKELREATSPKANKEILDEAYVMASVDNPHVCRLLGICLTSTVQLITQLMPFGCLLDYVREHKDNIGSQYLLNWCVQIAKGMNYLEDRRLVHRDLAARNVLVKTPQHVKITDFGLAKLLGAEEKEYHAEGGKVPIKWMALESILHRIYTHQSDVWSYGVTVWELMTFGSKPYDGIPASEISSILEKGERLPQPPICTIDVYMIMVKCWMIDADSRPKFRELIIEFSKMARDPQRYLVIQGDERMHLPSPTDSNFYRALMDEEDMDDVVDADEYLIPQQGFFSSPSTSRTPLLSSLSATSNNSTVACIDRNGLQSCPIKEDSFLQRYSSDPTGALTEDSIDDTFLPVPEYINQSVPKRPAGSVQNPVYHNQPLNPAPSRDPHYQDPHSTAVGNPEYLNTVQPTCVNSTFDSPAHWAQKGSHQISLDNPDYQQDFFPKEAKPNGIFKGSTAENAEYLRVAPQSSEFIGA

Row | IC50 [1] | IC50 [2] | IC50 [3] | Structure (SMILES)
1 | 64 nM | 27 nM | 412 nM | C[C@H](N)C#Cc1cc2ncnc(Nc3ccc(OCc4cccc(F)c4)c(Cl)c3)c2s1 [6-[(3S)-3-aminobut-1-yn-1-yl]-N-{3-chloro-4-[(3-fluorophenyl)methoxy]phenyl}thieno[3,2-d]pyrimidin-4-amine]
2 | 24 nM | 12 nM | – | C#Cc1cc2ncnc(Nc3ccc(OCc4cccc(F)c4)c(Cl)c3)c2s1 [N-{3-chloro-4-[(3-fluorophenyl)methoxy]phenyl}-6-ethynylthieno[3,2-d]pyrimidin-4-amine]
3 | 69 nM | 44 nM | 638 nM | C[C@H](N)C#Cc1cc2c(Nc3ccc(OCc4cccc(F)c4)c(Cl)c3)ncnc2s1 [6-[(3S)-3-aminobut-1-yn-1-yl]-N-{3-chloro-4-[(3-fluorophenyl)methoxy]phenyl}thieno[2,3-d]pyrimidin-4-amine]
4 | 372 nM | 52 nM | 1350 nM | Nc1cnc(C#Cc2cc3c(Nc4ccc(OCc5cccc(F)c5)c(Cl)c4)ncnc3s2)cn1 [5-{2-[4-({3-chloro-4-[(3-fluorophenyl)methoxy]phenyl}amino)thieno[2,3-d]pyrimidin-6-yl]ethynyl}pyrazin-2-amine]
5 | 71 nM | 19 nM | 1720 nM | C#Cc1cc2c(Nc3ccc(OCc4cccc(F)c4)c(Cl)c3)ncnc2s1 [N-{3-chloro-4-[(3-fluorophenyl)methoxy]phenyl}-6-ethynylthieno[2,3-d]pyrimidin-4-amine]
6 | 47 nM | 10 nM | 254 nM | Nc1cnc(C#Cc2cc3ncnc(Nc4ccc(OCc5cccc(F)c5)c(Cl)c4)c3s2)cn1 [5-{2-[4-({3-chloro-4-[(3-fluorophenyl)methoxy]phenyl}amino)thieno[3,2-d]pyrimidin-6-yl]ethynyl}pyrazin-2-amine]
7 | 109 nM | 54 nM | 2300 nM | Fc1cccc(COc2ccc(Nc3ncnc4sc(C#C[C@H]5CCCN5)cc34)cc2Cl)c1 [N-{3-chloro-4-[(3-fluorophenyl)methoxy]phenyl}-6-{2-[(2R)-pyrrolidin-2-yl]ethynyl}thieno[2,3-d]pyrimidin-4-amine]
8 | 7 nM | 13 nM | 66 nM | Fc1cccc(COc2ccc(Nc3ncnc4cc(C#C[C@H]5CCCN5)sc34)cc2Cl)c1 [N-{3-chloro-4-[(3-fluorophenyl)methoxy]phenyl}-6-{2-[(2R)-pyrrolidin-2-yl]ethynyl}thieno[3,2-d]pyrimidin-4-amine]
